pKd: −log10 of the molar value. Values belong to the molecule of their own block, whether it stands above or below them.
Columns and labels:
ptc>dRet^M955T flies = assay: Fly rescue assay (Drosophila MTC model ptc>dRet^M955T); format: in vivo; conditions: compound in fly food; for rescue (percent viability of adult flies, adults/pupae×100): 13 d at 25° C., baseline viability 0%
Method: Kinase-mutated fly stocks were obtained from Bloomington Drosophila Stock Center (BDSC; Bloomington, IN). The active mutant form of Drosophila Ret (dRet^955T) carries an M955T mutation corresponding to the M918T mutation commonly reported for multiple endocrine neoplasia (MEN) type 2B patients12,14,16,34. The ptc-gal4, UAS-GFP;UAS-dRet^M955T/SM5tub-gal80-TM6B transgenic flies were prepared according to standard protocols and crossed with non-transgenic w-flies (BDSC) to generate ptc-gal4, UAS-GFP; UAS-dRet^M955T(ptc>dRet^M955T) flies for chemical screening.
All drugs were synthesized in-house. All compounds were dissolved in DMSO (Sigma-Aldrich; St. Louis, MO) and mixed with semi-defined fly medium (BDSC) to make drug food (0.1% final DMSO concentration). For drug screening, ptc>dRet^M955T embryos were raised until adulthood on drug food for 13 d at 25° C. The number of empty pupal cases (i.e., adults) ? that of total pupal cases (P) to determine % viability. Fly randomization was used throughout the assays.
In this model, compounds are assessed based on their ability to suppress oncogenic Ret^M955T-induced tumors, which can be quantified as ‘rescue’ from lethality. […] The baseline viability of ptc>Ret^1955T flies was calibrated to zero, which creates a high bar for rescue but also reduces false-positive hits. Hundreds of flies are tested per condition (typical n values are […] administered through fly food.

P-gp = assay: MDCK permeability assay; format: in vitro ADME; conditions: dog, 1 hour at 37° C., HBSS pH 7.4 both sides, read-out: influx/efflux ratio in MDCK
Method: (§1) FIGS. 9A-9C show the physicochemical comparison of R^F and R^H Analogs. FIG. 9A is a graph of the MDCK and Caco-2 permeability assays for the indicated compounds. Compounds were assayed at 5 μM and transport (Papp, B-A and Papp, A-B, ×10^−6 cm/s) values were measured to determine influx over efflux ratios. […] There are differences in magnitude for bond and molecular dipoles, and R^F- and R^H-substituents have opposite charge profiles.
(§2) Caco-2 and MDCK permeability assays to assess transport in both directions, apical to basolateral (A-B) and basolateral to apical (B-A), across a cell monolayer were conducted at Quintara Discovery. The compounds were tested at a final concentration of 5 microM, with HBSS, pH 7.4 on apical side and HBSS, pH 7.4 on basolateral side. Transport was allowed to proceed for 1 hour at 37° C., with compound detection performed by LC-MS/MS. Assays were conducted twice. Papp, B-A and Papp, A-B, ×10^−6 cm/s values were determined at Quintara.

[1] = Caco-2 permeability assay; format: in vitro ADME; conditions: human, 1 hour at 37° C., HBSS pH 7.4 both sides, read-out: influx/efflux ratio in Caco-2
Method: as §1, §2

human MTC cell line TT = conditions: previous work; cited from earlier work
[2] = cited from earlier work
[3] = biological target: T1, wild-type RET kinase domain (Homo sapiens, UniProt P07949); assay: Wild-type RET Kd, bead based competition assay (KINOMEscan, DiscoverX); format: binding; conditions: recombinant human wild-type RET kinase domain, average of two replicates; read-out: Kd towards wild-type RET
T1 construct: determined against recombinant-human, wild-type RET kinase domain; phage display fusion (kinase expressed on phage); purchased DiscoverX (Fremont, CA); host or cells: phage
T1 sequence (P07949 724-1016 limits assumed): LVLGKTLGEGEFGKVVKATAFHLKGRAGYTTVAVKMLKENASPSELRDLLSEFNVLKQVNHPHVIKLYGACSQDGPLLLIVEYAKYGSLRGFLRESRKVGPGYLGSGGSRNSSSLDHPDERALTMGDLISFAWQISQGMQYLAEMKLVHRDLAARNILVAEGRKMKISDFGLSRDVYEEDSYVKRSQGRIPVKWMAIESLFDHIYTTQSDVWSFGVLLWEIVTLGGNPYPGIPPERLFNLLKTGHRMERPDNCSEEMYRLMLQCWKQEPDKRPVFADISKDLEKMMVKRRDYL
Method: Wild-type RET Kd values were determined by DiscoverX (Fremont, CA) using a bead based competition assay (KINOMEscan). In brief, kinases are expressed on phage and immobilized on beads via active site-directed ligands. Test compounds are premixed with kinases and assayed for the ability to compete for immobilized ligands. Binding constants are calculated with a standard dose-response curve and the Hill equation, with Hill slope set to −1. […] Kd values are the average of two experimental replicates.
To assess if the differences in activity between R^F- and R^H-analogs were related to alterations in target engagement, representative analogs for binding on wild-type RET were compared. For this KD values of compounds 40 (para-C2F5) and 50 (para-C2H5) were determined against recombinant-human, wild-type RET kinase domain.

[4] = tested on: panel of 468 purified human kinases; assay: In vitro kinase percent inhibition, panel of 468 kinases (DiscoverX); format: binding; conditions: 1 μM; for binding profile / selectivity across the kinome, in words: panel of 468 kinases
Method: Compounds were assayed against a panel of 468 purified human kinases (DiscoverX) to measure percentage inhibition values and derive kinome profiles (FIGS. 3B-3C). All compounds were screened at 1 μM, using two experimental replicates to determine percent inhibition values. Detailed procedures for kinase reactions and assay formats are described at http://www.discoverx.com. Raw data sets for individual compounds were filtered based on the variance of experimental replicates (cutoff=average variance+standard deviation).

SMILES: CNC(=O)c1cc(Oc2ccc(NC(=O)Nc3cc(C(F)(C(F)(F)F)C(F)(F)F)ccc3F)cc2)ccn1 [APS-6-45]
rescue (percent viability of adult flies, adults/pupae×100) (ptc>dRet^M955T flies): 84%
efflux ratio at 1 h, 5 µM (P-gp): < 2
efflux ratio at 1 h, 5 µM [1]: > 2
performance in mouse xenograft, in words (human MTC cell line TT): performed well

efflux ratio at 1 h, 5 µM (P-gp): < 2
efflux ratio at 1 h, 5 µM [1]: > 2
SMILES: CNC(=O)c1cc(Oc2ccc(NC(=O)Nc3ccc(Cl)c(C(F)(F)F)c3)cc2)ccn1 [Sorafenib, sorafenib]
protein-bound in blood plasma [2]: > 99%

SMILES: CNC(=O)c1cc(Oc2ccc(NC(=O)Nc3ccc(C(F)(F)F)cc3)c(F)c2)ccn1 [APS-4-9-8]
rescue activity in the fly model, in words (ptc>dRet^M955T flies): no fly rescue
rescue (percent viability of adult flies, adults/pupae×100) (ptc>dRet^M955T flies): 0%
pKd [3]: 8.55
binding to wild-type RET and RET^M918T, in words ([4]; kinase panel): strong binding to wild-type and mutant RET^M918T
binding profile / selectivity across the kinome, in words [4]: strong binding to a large group of kinases
binding profile / selectivity across the kinome, in words ([4]; listed as 4-9-8): low overall selectivity

Source: US20240287081A1, “PERFLUOROALKANE SUBSTITUTED PYRAZOLO[3,4-D]PYRIMIDIN AND PYRROLO[2,3-D]PYRIMIDIN COMPOUNDS AND USES THEREOF” (ICAHN SCHOOL OF MEDICINE AT MOUNT SINAI, priority 2021, published 2024)
